From patent publication US7262183B2, “Substituted 5-membered n-heterocyclic compounds and their uses for treating or preventing neurodegenerative diseases” (Instititute of Pharmacology and Toxicology, priority 2001, dated 2007) come the findings set out here.

Test [1] relates to chick embryos dorsal root ganglia. Description: chick embryos dorsal root ganglion cultures free of serum, neurite process growth. It counts as cell-based. Conditions: for Average scoring: 48 h, neurite score 0-3, average of 10 ganglia, control (NGF only) 0.33. On the procedure: The neurotrophic activity of compounds of the present invention can be determined through several biological models in vitro, e.g. the model of chick embryos dorsal root ganglion cultures free of serum in vitro.
In a sterile environment, dorsal root ganglia were dissected from chick embryos of 8 days gestation and inoculated in rat rail collagen coated culture bottles (5 to 6 dorsal root ganglia per bottle, and two bottles per dosage). After 1 hour of attachment in a 37° C., 5% CO2 incubator, NGF (0.15 ng/ml) containing culture medium free of serum (DMEM) and the compound of the present invention were added. The control groups were treated only with the same amount of NGF and culture medium. […] Five to six DRGs were cultured per bottle, and each treatment was performed in duplicate. The results of illustrative compound of example 15 promoting the growth of chick embryos dorsal root ganglia processes were outlined in table 1, wherein the scoring is the average scoring of 10 ganglia.
FIG. 1 indicates the growth of neurites of chick dorsal root ganglia under various dosages of the compound of example 15. A represents that chick embryos dorsal root ganglia with rare processes is caused by the treatment of sole NGF (0.15 ng/mL).

Test [2] has as its system adult mice sympathetic nerve endings damaged by 6-hydroxy-dopamine (6-OHDA). The test is described as follows: adult mice sympathetic nerve endings damaged by 6-OHDA, residual noradrenaline in submaxillary glands. It counts as in vivo. Particulars: 10 mg/kg subcutaneous injection; 6-OHDA 8 mg/kg intraperitoneal; measured two weeks after last administration, HPLC-electrochemical detector. On the procedure: The neurotrophic activity of the compounds of the present invention can also be determined in several animal pharmacological models in vivo, such as the model of adult mice sympathetic nerve endings damaged by 6-hydroxy-dopamine (6-OHDA).
Kunming species female mice (□) having a body weight of 18-22 g are randomly divided into the following groups: normal control group, model control group, FK506 (2 mg/kg) group, and the group of compound of the present invention (10 mg/kg) (10 mice per group). The mice are administrated with 6-OHDA (8 mg/kg) by intraperitoneal injection before 4 hours and after 4 continuous days of subcutaneous injection of the compound, while the control groups are administrated with the equivalent quantity of carrier by subcutaneous injection. After two weeks of the last administration, the mice are killed by luxation, and the two submaxillary glands of each of the mice are rapidly excised and weighed, placed in a glass grinder, then is homogenated with a homogenating liquid containing internal-standard, and centrifuged at 2000 g for 30 minutes. 20 μL of the obtained supernatant is directly injected in an HPLC-electrochemical detector to measure the content of noradrenaline (NE) in the submaxillary glands of the mice. […]

Consider `CC(C)(C)C(=O)C(=O)N1CSC(C)(C)[C@@H]1C(=O)OCCCc1cccnc1` [Example 15, 3-(3-pyridyl)-1-propyl (2S)-5,5-dimethyl-1-(3,3-dimethyl-1,2-dioxobutyl)-2-(4-thiazolidine)carboxylate], for which the figures for the Average scoring in test [1] (1 pM compound + NGF (0.15 ng/mL) in DMEM), in test [1] (10 pM compound + NGF (0.15 ng/mL) in DMEM) and in test [1] (100 pM compound + NGF (0.15 ng/mL) in DMEM) were 1.00, 1.31 and 1.57, respectively. In addition, the “growth of neurites of chick dorsal root ganglia (FIG. 1)” value in test [1] (1 pM compound + NGF (0.15 ng/mL), FIG. 1 B) was “enhances the improving effect of sole NGF (0.15 ng/mL) on the growth of neurites”; in test [1] (10 pM compound + NGF (0.15 ng/mL), FIG. 1 C, compared with 1 pM), “stronger effect on the growth of neurites”; in test [1] (100 pM compound + NGF (0.15 ng/mL), FIG. 1 D, compared with A, B and C), “strongest effect”. Further, in test [2], the “level of residual NE in the submaxillary glands of the mice (FIG. 2)” value is given as “raise the residual NE level”.
Turning to `CC(C)(C)C(=O)C(=O)N1CSC(C)(C)[C@@H]1C(=O)OCCCc1ccccc1` [Example 17, 3-phenyl-1-propyl (2S)-5,5-dimethyl-1-(3,3-dimethyl-1,2-dioxobutyl)-2-(4-thiazolidine)carboxylate], the “level of residual NE in the submaxillary glands of the mice (FIG. 2)” value in test [2] is “raise the residual NE level”.
